# Measured values from patent US11318208B2, “Synthetic compound” (Syntab Therapeutics GmbH, priority 2016, dated 2022).
# Square brackets hold non-standard residues; d marks the D form. Ends that are not written are not given here. * marks the point of attachment. Tyr(3-NO2) = N[C@@H](Cc1ccc(O)c([N+](=O)[O-])c1)C(=O)O; Hyp = O=C(O)[C@@H]1C[C@@H](O)CN1; For = O=C*
# How the values were obtained:
# αvβ6 Integrin [1] = molecular target: T1, αvβ6 Integrin (Homo sapiens, UniProt P06756+P18564); assay: FACS analysis of cell binding, binder targeting αvβ6 Integrin; conditions: FIG. 9, 10 nM biotinylated binder, vs scrambled variant
# T1 construct: The presence or absence of the surface antigens α3 Integrin and αvβ6 Integrin has been verified by corresponding antibody tests; endogenous in cells
# Method: (§1) The binding capability of peptides or peptidomimectis, of synthetic compounds according to the invention to different cell lines displaying particular targets was investigated by using flow cytometry. Detached cells were incubated with biotinylated peptide/peptidomimetic or biotinylated synthetic compound in blocking buffer for at least 30 min of ice. The cells were washed twice with washing buffer followed by incubation with streptavidin labeled with the Peridinin-chlorophyll protein PerCP-Cy5.5 (BD Biosciences) for 15 minutes on ice. After one additional wash step, samples were analyzed using FACS Canto (at least 10,000 cells per sample were counted) for cells which have bound the biotinylated reagent plus the streptavidin-PerCP-Cy5.5. Overlay histograms of cells incubated with peptide or control peptide were generated and the geometrical mean fluorescence of each sample was determined in FloJo. The EC50 measurements were calculated using Graph Prism software.
# (§2) The following cell lines were used. The presence or absence of the surface antigens α3 Integrin and αvβ6 Integrin has been verified by corresponding antibody tests: […]
# αvβ6 Integrin [2] = assay: as above; parameters: species or system human; conditions: FIG. 9, 10 nM biotinylated binder
# Method: as §1, §2
# α3 Integrin [3] = molecular target: T2, α3 Integrin (Homo sapiens, UniProt P05556+P26006); assay: FACS analysis of cell binding, binder targeting α3 Integrin; conditions: FIG. 8, 200 nM biotinylated binder, vs scrambled variant
# T2 construct: endogenous in cells; host or cells: A431
# Method: as §1, §2
# α3 Integrin [4] = assay: as above; parameters: species or system human; conditions: FIG. 8; 200 nM biotinylated binder; K 562 does not express α3 Integrin
# Method: as §1, §2
# human leukocytes [5] = assay: Chemotaxis assay; type: cell-based; conditions: FIG. 4A; in vitro in human leukocytes; compared with fMLF (devoid of an Ile residue)
# Method: To test for the chemotactic effect of effector peptides or peptidomimetics, human leukocytes were re-suspended in Hanks' Buffered Saline Solution (HBSS, without Ca^2+, Mg^2+) with 10 mM Hepes pH 7.4 and 0.3% BSA at 10*10^6 cells/ml. Cells were pre-warmed at 37° C. for 20 min. After adding the effector dilutions in the above buffer into wells of 24-well plates (800 μl/well), a Millicell culture plate insert with 5 μm pore size was placed in each well, followed by immediate addition of 200 μl (2 million) leukocytes. The plate was incubated at 37° C. for 45 min. The total number of leukocytes that migrated to the bottom chamber was determined using a Neubauer chamber, or the numbers of transmigrated monocytes, neutrophils and lymphocytes were determined by flow cytometry (distinguish cell populations in FCS/SSC plot).
# human leukocytes [6] = assay: DHR 123 oxidation assay (oxidative burst), human leukocytes; type: cell-based; conditions: FIG. 4B; in vitro in human leukocytes; compared with fMLF
# Method: (§3) Oxidative burst in neutrophils form part of the cells host defense, and can be evoked, e.g., by the N-formyl peptide fMLP. (Kim et al, 2003). Oxidation assays are thus a useful tool to determine the potency of formyl peptides. The oxidative burst activity of neutrophils caused by incubation with effector peptides or peptidomimetics was measured by flow cytometry, quantifying the intracellular conversion of dihydrorhodamine 123 (DHR) to rhodamine. In brief, human or murine leukocytes (1.25*10^6 cells/ml) were incubated with catalase, cytochalasin B (Sigma) and DHR (Invitrogen) in Hanks' Buffered Saline Solution (HBSS, without Ca^2+, Mg^2+) with 10 mM Hepes pH 7.4, 5 mM EDTA and 0.3% BSA at 37° C. for 10 minutes followed by incubation with the different effector peptides or peptidomimetics at different concentrations for 15 minutes at 37° C. PMA was used as a positive control.
# (§4) All samples were fixed in formaldehyde and kept on ice until analysis using FACS Canto (at least 20,000 cells per sample were counted). Neutrophils were identified based on forward and side scatter characteristics. Analysis of DHR fluorescence was performed by side scatter/FL2 dot plots. Percent of DHR-positive cells were identified by gating on a negative (unstimulated) control sample.
# mouse leukocytes = assay: DHR 123 oxidation assay (oxidative burst), mouse leukocytes; type: cell-based; conditions: FIG. 5; in vitro in mouse leukocytes; compared with fMLF
# Method: as §3, §4
# T2 sequence (P26006 33-872 limits assumed): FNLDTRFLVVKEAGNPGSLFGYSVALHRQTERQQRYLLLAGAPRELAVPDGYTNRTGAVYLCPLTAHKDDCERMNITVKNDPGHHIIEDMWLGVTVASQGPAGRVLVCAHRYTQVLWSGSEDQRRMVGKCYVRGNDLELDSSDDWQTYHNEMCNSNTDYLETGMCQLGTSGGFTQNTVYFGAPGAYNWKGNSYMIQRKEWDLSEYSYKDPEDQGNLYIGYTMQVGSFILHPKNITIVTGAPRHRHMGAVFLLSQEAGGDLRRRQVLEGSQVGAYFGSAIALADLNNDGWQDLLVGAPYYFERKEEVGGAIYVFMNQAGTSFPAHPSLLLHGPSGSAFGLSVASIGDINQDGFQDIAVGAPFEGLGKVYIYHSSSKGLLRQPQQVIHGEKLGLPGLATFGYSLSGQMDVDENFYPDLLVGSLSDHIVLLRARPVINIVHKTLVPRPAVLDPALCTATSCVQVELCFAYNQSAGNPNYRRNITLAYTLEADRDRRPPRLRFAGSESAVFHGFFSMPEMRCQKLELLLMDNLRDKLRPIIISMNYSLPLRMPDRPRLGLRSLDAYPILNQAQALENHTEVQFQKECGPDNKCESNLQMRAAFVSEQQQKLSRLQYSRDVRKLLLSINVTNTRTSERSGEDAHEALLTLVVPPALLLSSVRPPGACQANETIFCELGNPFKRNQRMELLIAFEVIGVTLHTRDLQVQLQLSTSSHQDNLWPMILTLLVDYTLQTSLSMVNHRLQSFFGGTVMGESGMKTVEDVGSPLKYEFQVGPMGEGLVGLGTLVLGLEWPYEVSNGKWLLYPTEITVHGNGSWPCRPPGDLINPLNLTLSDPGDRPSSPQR
# T2 sequence (P26006 873-1051 limits assumed): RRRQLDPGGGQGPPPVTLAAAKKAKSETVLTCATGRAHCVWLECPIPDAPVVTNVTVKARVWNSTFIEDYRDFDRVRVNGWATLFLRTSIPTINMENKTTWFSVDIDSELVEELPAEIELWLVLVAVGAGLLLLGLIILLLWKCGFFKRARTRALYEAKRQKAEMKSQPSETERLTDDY
# T2 sequence (P05556 21-798): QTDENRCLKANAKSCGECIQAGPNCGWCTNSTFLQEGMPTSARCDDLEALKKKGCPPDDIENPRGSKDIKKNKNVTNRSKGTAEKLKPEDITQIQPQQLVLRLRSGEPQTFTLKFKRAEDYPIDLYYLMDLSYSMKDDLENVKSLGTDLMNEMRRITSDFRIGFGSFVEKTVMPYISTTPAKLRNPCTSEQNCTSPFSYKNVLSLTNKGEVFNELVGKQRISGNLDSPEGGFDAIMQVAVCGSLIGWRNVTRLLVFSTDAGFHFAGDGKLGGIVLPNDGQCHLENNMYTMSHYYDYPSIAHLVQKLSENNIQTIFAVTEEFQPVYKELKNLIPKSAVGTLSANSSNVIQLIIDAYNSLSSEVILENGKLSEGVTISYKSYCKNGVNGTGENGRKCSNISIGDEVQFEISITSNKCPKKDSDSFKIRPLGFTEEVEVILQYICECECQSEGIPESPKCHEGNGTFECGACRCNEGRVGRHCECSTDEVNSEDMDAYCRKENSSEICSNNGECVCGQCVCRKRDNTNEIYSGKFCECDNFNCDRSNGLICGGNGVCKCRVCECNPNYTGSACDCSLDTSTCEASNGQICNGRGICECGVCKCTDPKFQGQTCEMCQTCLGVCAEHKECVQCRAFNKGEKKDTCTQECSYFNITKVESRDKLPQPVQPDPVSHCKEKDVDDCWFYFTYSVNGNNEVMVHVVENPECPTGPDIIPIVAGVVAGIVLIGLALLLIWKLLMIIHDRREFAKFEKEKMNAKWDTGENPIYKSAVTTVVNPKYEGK
# T1 sequence (P06756 31-889 limits assumed): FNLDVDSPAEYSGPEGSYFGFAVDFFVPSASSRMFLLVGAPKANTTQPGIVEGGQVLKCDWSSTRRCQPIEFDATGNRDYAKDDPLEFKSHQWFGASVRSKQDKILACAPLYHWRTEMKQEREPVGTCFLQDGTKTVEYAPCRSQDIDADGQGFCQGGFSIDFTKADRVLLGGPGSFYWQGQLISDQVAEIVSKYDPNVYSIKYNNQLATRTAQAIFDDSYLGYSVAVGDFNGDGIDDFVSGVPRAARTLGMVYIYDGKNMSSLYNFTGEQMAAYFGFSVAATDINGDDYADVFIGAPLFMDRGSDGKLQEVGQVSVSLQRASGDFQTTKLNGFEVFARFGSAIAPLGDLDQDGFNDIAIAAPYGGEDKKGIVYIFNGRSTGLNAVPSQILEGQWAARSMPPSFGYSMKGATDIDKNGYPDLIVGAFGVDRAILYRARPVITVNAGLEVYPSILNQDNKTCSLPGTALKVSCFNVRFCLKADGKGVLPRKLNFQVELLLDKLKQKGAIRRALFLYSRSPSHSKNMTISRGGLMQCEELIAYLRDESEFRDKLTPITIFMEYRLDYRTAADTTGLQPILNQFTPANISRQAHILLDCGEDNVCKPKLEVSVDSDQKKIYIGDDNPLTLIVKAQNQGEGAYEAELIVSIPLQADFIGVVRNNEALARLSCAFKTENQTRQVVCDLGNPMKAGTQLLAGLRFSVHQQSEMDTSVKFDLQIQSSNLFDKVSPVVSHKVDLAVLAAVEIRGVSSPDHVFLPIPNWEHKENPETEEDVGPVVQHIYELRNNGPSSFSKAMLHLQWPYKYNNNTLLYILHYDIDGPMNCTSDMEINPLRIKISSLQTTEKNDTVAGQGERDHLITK
# T1 sequence (P06756 891-1048 limits assumed): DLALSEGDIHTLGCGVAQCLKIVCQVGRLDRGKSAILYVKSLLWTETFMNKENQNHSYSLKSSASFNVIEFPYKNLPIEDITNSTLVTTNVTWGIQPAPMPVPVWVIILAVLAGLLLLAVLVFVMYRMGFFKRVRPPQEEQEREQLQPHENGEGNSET
# T1 sequence (P18564 22-788): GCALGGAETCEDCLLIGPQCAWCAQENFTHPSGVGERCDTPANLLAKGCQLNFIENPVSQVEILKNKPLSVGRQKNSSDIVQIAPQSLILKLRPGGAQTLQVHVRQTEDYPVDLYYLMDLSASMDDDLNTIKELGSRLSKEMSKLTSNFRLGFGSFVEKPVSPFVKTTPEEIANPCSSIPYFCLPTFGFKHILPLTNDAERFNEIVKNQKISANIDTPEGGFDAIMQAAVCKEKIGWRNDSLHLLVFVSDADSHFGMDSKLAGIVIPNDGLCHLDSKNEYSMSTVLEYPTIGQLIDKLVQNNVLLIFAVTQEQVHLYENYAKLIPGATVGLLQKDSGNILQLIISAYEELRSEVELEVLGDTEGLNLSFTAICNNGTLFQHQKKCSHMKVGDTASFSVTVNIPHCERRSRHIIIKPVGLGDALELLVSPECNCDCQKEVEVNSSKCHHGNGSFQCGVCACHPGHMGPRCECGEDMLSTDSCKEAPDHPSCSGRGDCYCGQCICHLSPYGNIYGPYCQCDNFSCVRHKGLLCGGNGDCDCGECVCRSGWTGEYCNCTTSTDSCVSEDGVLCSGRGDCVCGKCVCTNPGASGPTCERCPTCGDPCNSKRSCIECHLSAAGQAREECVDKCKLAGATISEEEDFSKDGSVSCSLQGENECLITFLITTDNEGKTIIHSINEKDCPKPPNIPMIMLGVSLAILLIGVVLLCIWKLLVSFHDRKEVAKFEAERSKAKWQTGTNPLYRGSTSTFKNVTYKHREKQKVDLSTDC
substance,measurement,setting,value
"SEQ ID NO: 2: peptide binder RGDLATLRQL targeting αvβ6 Integrin; tested biotinylated (also: biotinylated, place not given here)",binding to cell line A431,αvβ6 Integrin [1]; A431 expresses αvβ6 Integrin,binds
same,binding to cell line HT-29,αvβ6 Integrin [1]; HT-29 expresses αvβ6 Integrin,binds
same,binding to cell line PC-3,αvβ6 Integrin [2]; PC-3 does not express αvβ6 Integrin,do not bind
same,binding to cell line U87-MG,αvβ6 Integrin [2]; U87-MG does not express αvβ6 Integrin,do not bind
"SEQ ID NO: 1: peptidomimetic binder cdGY(3-NO2)GHypNc targeting α3 Integrin; tested biotinylated ([dC][dD]G[Tyr(3-NO2)]G[Hyp]N[dC]; cysteine pairing not given here; also: tested biotinylated, site not given here)",binding to cell line A431,α3 Integrin [3]; A431 expresses α3 Integrin,binds
same,binding to cell line PC3,α3 Integrin [3]; PC3 expresses α3 Integrin,binds
same,binding to cell line U87-MG,α3 Integrin [3]; U87-MG expresses α3 Integrin,binds
same,binding to cell line K 562,α3 Integrin [4],do not bind
"fMIFL: N-formyl methionine effector peptide fMIFL, comprises isoleucin; fM=N-formylmethionine, remaining letters L-amino acids (For-MIFL)",chemotactic effect,human leukocytes [5],significantly better chemotactic effect
same,activation of oxidative bursts,human leukocytes [6],much better activation of oxidative bursts
same,activation of oxidative bursts,mouse leukocytes,much better activation of oxidative bursts
